Assay [1] has as its target Cytochrome P450 2C19 (Homo sapiens, UniProt P33261). Nature of the assay: Cytochrome panel assay with activity outcomes. Panel member name: p450-cyp2c19 Compounds with AC50 equal or less than 10 uM are considered active. The assay is classed as functional.
Assay [2] is described as follows: viability of uninfected HEp-2 cells – cell-based, HTS, cytotoxicity control for RSV inhibitor project, dose response (AID 2410). The assay is classed as functional. Particulars: human respiratory syncytial virus.
Assay [3] in a line: Luminescence Cell-Based Dose Response HTS to Identify Activators of Luciferase Translation or Activity in H4 […] Cells. [Related pubchem assays: 1829 (Project Summary), 1814 (Primary HTS)]. The assay is classed as functional.
In assay [4] the test system is H4. Nature of the assay: Luminescence Cell-Based Dose Response HTS to Identify Activators of 5'UTR Stem-Loop Driven Prion Protein mRNA Translation in H4 Neuroglioblastoma Cells. [Related pubchem assays: 1829 (Project Summary), 1814 (Primary HTS)]. In kind it is functional. As to conditions: Homo sapiens.
For assay [5], the target named is T1, Heat shock factor protein 1 (Mus musculus, UniProt P38532).
T1 sequence (P38532 whole entry): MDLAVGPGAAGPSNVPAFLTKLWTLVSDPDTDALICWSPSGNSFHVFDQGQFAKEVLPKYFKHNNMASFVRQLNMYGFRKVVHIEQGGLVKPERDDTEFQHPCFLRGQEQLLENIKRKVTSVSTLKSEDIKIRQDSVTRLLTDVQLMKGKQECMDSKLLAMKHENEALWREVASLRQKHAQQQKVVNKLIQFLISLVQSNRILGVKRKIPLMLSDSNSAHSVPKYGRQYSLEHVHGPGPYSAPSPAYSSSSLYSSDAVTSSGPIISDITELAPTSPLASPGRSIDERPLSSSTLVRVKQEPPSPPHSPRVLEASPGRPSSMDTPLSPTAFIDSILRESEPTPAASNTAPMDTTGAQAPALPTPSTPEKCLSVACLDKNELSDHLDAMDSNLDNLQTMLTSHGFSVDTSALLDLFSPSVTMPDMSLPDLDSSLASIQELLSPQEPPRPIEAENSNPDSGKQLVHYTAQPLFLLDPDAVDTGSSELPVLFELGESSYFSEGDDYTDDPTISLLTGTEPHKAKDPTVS
Briefly: decrease of HSF1-responsive luciferase luminescence – cell-based, NIH3T3, dose retest, confirmation (AID 2382).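 Note: NIH3T3 fibroblasts with HSF1-driven luciferase reporter stressed by proteasome inhibitor MG132; luminescence from HSF1-driven luciferase expression after 8 hours of MG132 stress.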 In kind it is functional.

Assay [6] has as its system Streptococcus sp. 'group A'. Briefly: Streptococcus pyogenes SK(-)GAS viability under kanamycin – luminescence, BacTiterGlo, confirmation, counter-screen for streptokinase expression inhibitor project, dose response (AID 1900). In kind it is functional, organism-based. In general terms: The purpose of a counterscreen is to sort out artefacts and off-target activity.
In assay [7] the test system is Streptococcus. Nature of the assay: GAS UMAA2166 growth inhibition – luminescence, BacTiterGlo, counter-screen for streptokinase expression inhibitor project, dose response (AID 1915).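 Note: potency for reduction of bacterial viability or growth.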 The assay is classed as functional, organism-based.
Assay [8] has as its target Cytochrome P450 2D6 (Homo sapiens, UniProt P10635).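 Note: CYP2D6 member of a cytochrome P450 panel assay.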
For assay [9], the target named is Cytochrome P450 3A4 (Homo sapiens, UniProt P08684).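 Note: CYP3A4 tested as one member of a cytochrome P450 panel screen.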
Sequence of Cytochrome P450 3A4 (P08684 whole entry): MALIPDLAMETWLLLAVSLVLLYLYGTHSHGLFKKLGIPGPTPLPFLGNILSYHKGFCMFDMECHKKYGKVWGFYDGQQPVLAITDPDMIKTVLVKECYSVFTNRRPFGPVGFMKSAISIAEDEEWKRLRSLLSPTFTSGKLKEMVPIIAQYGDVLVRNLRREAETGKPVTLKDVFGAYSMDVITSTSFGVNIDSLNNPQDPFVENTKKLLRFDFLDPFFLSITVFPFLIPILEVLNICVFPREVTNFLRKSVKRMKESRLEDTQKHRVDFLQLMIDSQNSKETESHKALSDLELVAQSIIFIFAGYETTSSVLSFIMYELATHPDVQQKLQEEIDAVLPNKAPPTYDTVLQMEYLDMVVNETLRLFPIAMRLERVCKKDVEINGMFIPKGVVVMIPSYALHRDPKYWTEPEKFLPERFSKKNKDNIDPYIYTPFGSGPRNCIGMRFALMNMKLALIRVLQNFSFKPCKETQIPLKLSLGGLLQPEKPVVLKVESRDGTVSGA
Assay [10] concerns the target Cytochrome P450 2C9 (Homo sapiens, UniProt P11712).
Assay [11] is described as follows: Luminescence Cell-Based Dose Response HTS to Identify Inhibitors of 5'UTR Stem-Loop Driven Prion Protein mRNA Translation in H4 Neuroglioblastoma Cells. [Related pubchem assays: 1827 (Project Summary), 1813 (Primary HTS)]. The assay is classed as functional.

The source made the active and inactive calls. Bounds are passed on as bounds.

Broadly, the AC50 is the midpoint of the concentration-response curve, whichever way the signal moves. One may read the CC50 as the concentration at which the toxic effect on the cells reaches its halfway point. Usually EC50 stands for the concentration giving half of the maximal effect.

Sequence of Cytochrome P450 2D6 (P10635 whole entry): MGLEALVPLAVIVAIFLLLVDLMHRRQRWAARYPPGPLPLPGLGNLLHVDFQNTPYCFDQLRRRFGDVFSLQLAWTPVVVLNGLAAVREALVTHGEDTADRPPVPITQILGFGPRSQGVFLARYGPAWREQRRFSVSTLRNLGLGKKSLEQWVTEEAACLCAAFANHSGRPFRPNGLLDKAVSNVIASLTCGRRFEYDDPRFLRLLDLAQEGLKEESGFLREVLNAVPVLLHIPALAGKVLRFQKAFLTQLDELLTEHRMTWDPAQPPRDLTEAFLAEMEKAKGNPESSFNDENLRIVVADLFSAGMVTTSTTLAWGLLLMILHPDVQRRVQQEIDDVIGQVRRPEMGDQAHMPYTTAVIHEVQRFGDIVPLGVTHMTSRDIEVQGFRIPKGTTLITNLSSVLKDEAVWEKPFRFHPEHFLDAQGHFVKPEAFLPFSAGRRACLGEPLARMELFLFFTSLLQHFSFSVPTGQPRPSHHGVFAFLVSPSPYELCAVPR
Sequence of Cytochrome P450 2C19 (P33261 whole entry): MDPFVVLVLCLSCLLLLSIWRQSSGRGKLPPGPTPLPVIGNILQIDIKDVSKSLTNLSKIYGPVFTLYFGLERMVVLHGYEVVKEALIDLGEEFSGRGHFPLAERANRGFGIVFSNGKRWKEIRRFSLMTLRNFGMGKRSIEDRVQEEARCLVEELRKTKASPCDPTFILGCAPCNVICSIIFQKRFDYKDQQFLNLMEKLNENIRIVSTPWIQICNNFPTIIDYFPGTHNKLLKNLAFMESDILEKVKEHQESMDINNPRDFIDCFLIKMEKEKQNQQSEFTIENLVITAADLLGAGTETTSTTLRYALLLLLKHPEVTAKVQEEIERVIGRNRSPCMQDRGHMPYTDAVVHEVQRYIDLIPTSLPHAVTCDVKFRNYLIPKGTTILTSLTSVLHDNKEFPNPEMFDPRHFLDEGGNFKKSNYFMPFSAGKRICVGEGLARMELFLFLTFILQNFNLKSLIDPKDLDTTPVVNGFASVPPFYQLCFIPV
Sequence of Cytochrome P450 2C9 (P11712 whole entry): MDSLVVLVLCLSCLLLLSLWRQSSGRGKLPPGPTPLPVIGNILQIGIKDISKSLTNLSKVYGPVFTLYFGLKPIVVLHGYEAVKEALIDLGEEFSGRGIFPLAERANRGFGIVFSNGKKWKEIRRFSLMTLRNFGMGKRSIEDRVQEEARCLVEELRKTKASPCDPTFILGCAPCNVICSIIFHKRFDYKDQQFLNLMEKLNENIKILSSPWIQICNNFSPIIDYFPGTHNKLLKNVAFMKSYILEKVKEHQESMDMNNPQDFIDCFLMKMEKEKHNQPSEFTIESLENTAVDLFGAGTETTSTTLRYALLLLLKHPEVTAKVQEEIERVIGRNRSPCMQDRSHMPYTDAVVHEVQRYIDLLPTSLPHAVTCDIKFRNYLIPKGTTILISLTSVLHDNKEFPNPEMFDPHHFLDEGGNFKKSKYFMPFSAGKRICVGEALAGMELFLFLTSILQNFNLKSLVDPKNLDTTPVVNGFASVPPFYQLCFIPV

As for `c1ccc(CCCNc2nnnc3ccccc23)cc1`, the concentration at half-maximal activity (AC50) in [1] is 3.16 µM (inconclusive).
Consider `COc1ccc2nc(O)c(CNc3ccccc3)cc2c1`, for which the CC50 in [2] is 34.4 µM (active).
With `CC(=O)Nc1ccc(O)c(-c2nc3ccccc3s2)c1`, the EC50 in assay [3] was 21.2 µM (active); in assay [4], 22.5 µM (active).
As for `CN(NC1OC(=O)c2ccccc21)c1ccc(C(F)(F)F)cc1[N+](=O)[O-]` (centres undefined), the EC50 in assay [5] is > 195 µM (not active).
On to `COc1ccc2c(C)cc(N3CCOCC3)nc2c1`, for which the AC50 in assay [1] was 31.6 µM (inconclusive).
Take `COc1ccc(Br)cc1S(=O)(=O)Nc1nc[nH]n1`: the EC50 in [6] and in assay [7] was > 150 µM (not active) in each case.
As to `COC(=O)c1ccccc1NC(=O)c1ccc(F)cc1`, the AC50 in assay [1] is 25.1 µM (inconclusive).
In the case of `CC(CCc1ccccc1)NC(=O)CCNS(=O)(=O)c1ccccc1` (centres undefined), the EC50 in assay [5] was > 195 µM (not active).
In the case of `O=C(COC(=O)/C=C/c1ccc(C(F)(F)F)cc1)NC1CC1`, the EC50 in assay [5] is given as > 195 µM (not active).
For `CCn1c(SCc2nc3ccccc3[nH]2)nnc1-c1ccc(OC)cc1`, the AC50 in assay [8] was 20 µM (inconclusive).
Turning to `Nc1nc2ccc(Cl)cc2c2nc(-c3ccco3)nn12` [CGS-15943], the results for the AC50 in assay [9], in [10] and in [8] were 7.94 µM (inconclusive), 31.6 µM (inconclusive) and 12.6 µM (inconclusive), respectively.
With `c1ccc2c(NC3CC3)nc(-c3ccoc3)nc2c1`, in [1], the AC50 is 25.1 µM (inconclusive).
On to `CC(C)NC(=O)COC(=O)C1CSC2(c3ccc(Br)cc3)CCC(=O)N12` (centres undefined), for which the EC50 in assay [5] is given as > 195 µM (not active).
For the compound `Cc1ccc2nc(-c3ccc(NC(=O)COC(=O)c4ccc([N+](=O)[O-])o4)cc3)sc2c1`, in assay [11], the EC50 was 10.9 µM (inconclusive).
On to `Cc1cccc(Cn2cnc3c(NS(C)(=O)=O)c(C)c(C)cc32)c1`, for which the AC50 in assay [10] is 1.26 µM (inconclusive); in assay [8] it was 35.5 µM (inconclusive).
With `CN(C)C(=O)c1ccc(-c2ccc3ncnc(NCc4cccs4)c3c2)cc1`, in [8], the concentration at half-maximal activity (AC50) is 20 µM (inconclusive).
Regarding `Cc1cc(-c2ccc(C)c(S(=O)(=O)NCCC(C)N3CCCCCC3)c2)on1` (centres undefined), in assay [5], the EC50 is > 195 µM (not active).
`Cc1ccccc1CSc1nccn1-c1ccccc1`: the AC50 in assay [8] was 17.8 µM (inconclusive).
In the case of `N#Cc1c(Nc2cccc(F)c2)sc2c(O)cc(O)nc12`, the figures for the EC50 in [6] and in assay [7] were 1.19 µM (active) and 5.71 µM (active), respectively.
On to `CC1(C)Cc2c(C#N)c(NCCO)nc(-c3ccco3)c2CO1`, for which the EC50 in assay [5] was > 195 µM (not active).
With `CCC1CCCCN1S(=O)(=O)c1ccc(C(=O)Nc2nnc(C3=COCCO3)o2)cc1` (centres undefined), the concentration for a half-maximal effect (EC50) was 4.61 µM (active) in assay [6] and 10.7 µM (active) in assay [7].
As to `CCO/C(O)=C1\C(C)=NC2=C(C(=O)CCC2)C1c1cn(Cc2ccc(Cl)cc2Cl)nc1-c1ccccc1` (centres undefined), the CC50 in assay [2] is 30.6 µM (active).
In the case of `O=C(COC(=O)COc1ccccc1)Nc1ccc(OC(F)(F)F)cc1`, the AC50 in [1] was 39.8 µM (inconclusive).
In the case of `Cn1c(CSc2nc3cc(Br)ccc3[nH]2)nc2ccccc21`, the CC50 in assay [2] is > 50 µM (active).
On to `CCOC(=O)C(/C=N/CC(=O)O)=C(\O)OCC`, for which the AC50 in [8] is 39.8 µM (inconclusive).
As to `CCc1nn(C(C)C(=O)N2CCN(c3ccccc3)CC2)c(=O)c2cc3occc3n12` (centres undefined), the CC50 in [2] was 20.4 µM (active).
As to `C/C=C/c1ccc(OCC(=O)NCc2ccccc2OC)c(OC)c1`, the 50% cytotoxic concentration (CC50) in [2] was 40.4 µM (active).
Take `Cc1noc(C)c1-c1ccc2ncnc(Nc3ccc(F)cc3)c2c1`: the results for the AC50 in assay [9] and in [8] were 15.8 µM (inconclusive) and 39.8 µM (inconclusive), respectively.
Consider `COc1cc(/C=C2/C(=N)N3N=C(CC(=O)N4CCOCC4)SC3=NC2=O)ccc1OCc1ccccc1`, for which the EC50 in [3] was 10.5 µM (active); in [4], 14.5 µM (active).
For `CCCNC(=O)c1ccc(COc2ccc(CCC)cc2OC)o1`, the EC50 in assay [5] is reported as > 195 µM (not active).
Take `CCOC(=O)C1=C(NC(=S)NC(=O)c2ccccc2)c2ccccc2CC1(C)CC` (centres undefined): the CC50 in assay [2] was 12.5 µM (active).
Turning to `COc1ccc(-c2[nH]nc(C)c2-c2ccc(Cl)cc2)c(O)c1`, the EC50 was 9.86 µM (active) in assay [6] and 11.1 µM (active) in [7].
As for `C/C(=N/NC(=O)CNC(=O)c1ccccn1)c1ccc([N+](=O)[O-])cc1`, the 50% effective concentration (EC50) in [5] is given as > 195 µM (not active).
For `COc1ccc([C@H]2CC(=O)C=C(c3ccc(Cl)c(C(F)(F)F)c3)C2)cc1`, the CC50 in assay [2] was 12.9 µM (active).
As for `COc1cccc(Nc2cc(C)c3ccccc3n2)c1`, the CC50 in [2] is 32 µM (active).
Same read-out and setting: the value for `CCOC(=O)c1c(C)[nH]c(C2=NN=C(NC3CC3)SC2)c1C` was 28.1 µM (active).
In the case of `O=C(NCc1ccccc1C(F)(F)F)C1CC(c2ccc(C(F)(F)F)cc2)=NO1` (centres undefined), the EC50 in [5] is given as > 195 µM (not active).
Same read-out and setting: the value for `COc1cc(C(=O)Nc2ccccc2NC(=O)c2cc(OC)c(OC)c(OC)c2)cc(OC)c1OC` was > 195 µM (not active); that for `Nc1ncnc2[nH]c(N3CCN(C(=O)c4ccccc4)CC3)nc12` was > 195 µM (not active).
In the case of `Cc1csc(NC(=O)C2=COCCO2)n1`, the EC50 in assay [3] was 3.11 µM (active); in [4], > 120 µM (not active).
For the compound `CCOC(=O)c1c(-c2ccccc2)cn2ccccc12`, the AC50 is 12.6 µM (inconclusive) in assay [9] and 3.16 µM (inconclusive) in [8].
For `COc1ccc(/C=N/N(C)C2=NCCN2)c(OC)c1OC`, in assay [5], the EC50 is on record as > 195 µM (not active).
As to `CCCOc1ccc(-c2n[nH]c(S)n2)cc1`, in assay [2], the cytotoxic concentration (CC50) is 25.1 µM (active).
Take `S=C(c1ccc(-c2ccc(Cl)cc2Cl)o1)N1CCCCC1`: the figures for the 50% effective concentration (EC50) in assay [3] and in assay [4] were 50 µM (active) and 1.97 µM (active), respectively.
Take `Cc1ccc(/N=C/c2ccc[nH]2)c(O)c1`: the half-maximal effective concentration (EC50) in assay [5] is > 195 µM (not active).
Regarding `COc1ccc(NC(=O)C2C(c3ccccc3)C2(Cl)Cl)cc1` (centres undefined), the CC50 in assay [2] is 17.7 µM (active).
Turning to `CCOC(=O)N1CCN(c2nc(-c3cccs3)nc3ccccc23)CC1`, the CC50 in assay [2] is > 50 µM (active).
As for `CC1CCN(C(S)=NCCc2ccccc2)CC1`, the EC50 is 0.102 µM (active) in [3] and 31.3 µM (active) in assay [4].
Consider `COc1ccccc1-c1ccc2ncnc(N(C)C)c2c1`, for which the AC50 in assay [8] was 12.6 µM (inconclusive).
For the compound `O=C(CN1c2ccccc2Sc2ccccc21)NNC(=O)Nc1ccc(Cl)cc1`, the CC50 in assay [2] is > 50 µM (active).

For the origin of these results see ChEMBL document CHEMBL1201862, “PubChem BioAssay data set” (2004).
